Experimental data from paper PMC3731256, “Optimization of Substituted 6-Salicyl-4-Anilinoquinazoline Derivatives as Dual EGFR/HER2 Tyrosine Kinase Inhibitors” (PLoS ONE, 2013).

Key:
[1] = target: T1, p38α (Homo sapiens, UniProt Q16539); assay: Serine/threonine kinase profiling ([γ-32P] ATP), p38α; type: biochemical
T1 construct: FLAG (N); made in house; host or cells: baculovirus expression system
Experimental: (§1) Assays for 4 serine/threonine kinases using radio labeled [γ-^32P] ATP (GE Healthcare, Piscataway, NJ) were performed in 96 well plates. Mitogen-activated protein kinase p38α (p38α), was expressed as N-terminal FLAG-tagged protein using a baculovirus expression system. Aurora-A and -B were expressed as N-terminal 6xHis tagged protein using a baculovirus expression system. CDK2/CycA was expressed as C-terminal 6His-tagged CDK2, and N-terminal GST-tagged Cyclin A protein using a baculovirus expression system.
(§2) The reaction conditions were optimized for each kinase: p38α (100 ng/well of enzyme, 1 μg/well of MBP (Wako Pure Chemical Ind., Osaka, Japan), 0.1 μCi/well of [γ-^32P] ATP, 60 min reaction at 30 ℃); Aurora-A and -B (50 ng/well of enzyme, 30 μM of Aurora substrate peptide, 0.2 μCi/well of [γ-^32P] ATP, 60 min reaction at room temperature); CDK2/CycA (1.8 mUnits/well of enzyme, 1 μg/well of Histone H1 (Calbiochem), 0.2 μCi/well of [γ-^32P] ATP, 20 min reaction at room temperature).
(§3) All the four enzyme reactions were performed in 25 mM HEPES, pH 7.5, 10 mM magnesium acetate, 1 mM dithiothreitol and 0.5 μM ATP containing optimized concentration of enzyme, substrate and radiolabeled ATP as described above in a total volume of 50 μl. […] The radioactivity was counted by a TopCount scintillation counter (PerkinElmer).

[2] = target: T2, Aurora B (Homo sapiens, UniProt Q96GD4); assay: Serine/threonine kinase profiling ([γ-32P] ATP), Aurora B; type: biochemical; conditions: ATP concentration = Km
T2 construct: 6xHis (N); made in house; host or cells: baculovirus expression system
T2 sequence (Q96GD4 whole entry): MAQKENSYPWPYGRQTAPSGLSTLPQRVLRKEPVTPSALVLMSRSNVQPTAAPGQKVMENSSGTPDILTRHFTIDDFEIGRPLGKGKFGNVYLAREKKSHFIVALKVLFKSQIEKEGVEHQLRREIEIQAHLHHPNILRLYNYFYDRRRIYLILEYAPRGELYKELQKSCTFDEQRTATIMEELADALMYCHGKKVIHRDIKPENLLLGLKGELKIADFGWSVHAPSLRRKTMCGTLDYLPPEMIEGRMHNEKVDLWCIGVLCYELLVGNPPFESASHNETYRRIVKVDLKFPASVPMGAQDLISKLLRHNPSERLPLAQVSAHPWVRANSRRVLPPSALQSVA
Experimental: as §1, §2, §3

[3] = target: T3, CDK2/CycA (Homo sapiens, UniProt P24941); assay: Serine/threonine kinase profiling ([γ-32P] ATP), CDK2; type: biochemical
T3 construct: 6His (C); made in house; host or cells: baculovirus expression system
Experimental: as §1, §2, §3

[4] = test system: MDA-MB-453 cells; assay: Antiproliferation WST-1 assay, MDA-MB-453; type: cell-based; conditions: Homo sapiens, breast cancer, HER-2++, PTEN deficiency
Experimental: WST-1 is better than MTT for analyzing cell proliferation, because it can be reduced to soluble formazan by dehydrogenase in mitochondria and has little toxicity to cells. Cell proliferation was determined using WST-1 dye (Beyotime Inst Biotech, China) according to manufacture’s instructions. Brieﬂy, 5 × 10^3 cells per well were seeded in a 96-well plate, grown at 37 ℃ for 24 h, and then placed in serum-starved conditions for a further 6 h. Subsequently, cells were treated with compounds (Table 1) at increasing concentrations in the presence of 10% FBS for 24 or 48h. After 10 µL WST-1 dye was added to each well, cells were incubated at 37 ℃ for 2 h and the absorbance was ﬁnally determined at 450 nm using a microplate reader.

[5] = target: T4, Aurora A (Homo sapiens, UniProt O14965); assay: Serine/threonine kinase profiling ([γ-32P] ATP), Aurora A; type: biochemical; conditions: ATP concentration = Km
T4 construct: 6xHis (N); made in house; host or cells: baculovirus expression system
T4 sequence (O14965 1-403): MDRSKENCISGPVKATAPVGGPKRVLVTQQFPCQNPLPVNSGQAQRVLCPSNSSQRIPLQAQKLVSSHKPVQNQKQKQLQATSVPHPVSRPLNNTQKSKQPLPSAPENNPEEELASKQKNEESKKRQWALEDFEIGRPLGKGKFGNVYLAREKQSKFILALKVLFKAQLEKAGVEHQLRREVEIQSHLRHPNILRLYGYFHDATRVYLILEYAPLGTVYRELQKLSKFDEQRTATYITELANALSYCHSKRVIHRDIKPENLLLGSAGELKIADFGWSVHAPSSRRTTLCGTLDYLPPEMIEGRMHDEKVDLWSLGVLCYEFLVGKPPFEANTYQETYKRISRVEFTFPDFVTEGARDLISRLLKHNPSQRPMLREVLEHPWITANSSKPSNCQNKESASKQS
Experimental: as §1, §2, §3

[6] = test system: several key kinases close to EGFR/HER2; assay: Kinase selectivity profile; type: biochemical; conditions: versus EGFR/HER2
Experimental: as §1
The cytoplasmic domain of vascular endothelial growth factor receptor 2 (VEGFR2), platelet-derived growth factor receptor α (PDGFRα), cSRC were purchased from Millipore Corp. Assays for 3 tyrosine kinases were performed in 384 well plates using the Alphascreen® system (PerkinElmer) at room temperature. Enzyme reactions were performed in 50 mM Tris–HCl, pH7.5, 5 mM MnCl2, 5 mM MgCl2, 0.01% Tween-20, 2 mM dithiothreitol and 0.1 μg/ml biotinylated poly-GluTyr (4:1) containing optimized concentration of enzyme and ATP as described below.

[7] = converted from IC50 by online calculator

T1 sequence (Q16539 whole entry): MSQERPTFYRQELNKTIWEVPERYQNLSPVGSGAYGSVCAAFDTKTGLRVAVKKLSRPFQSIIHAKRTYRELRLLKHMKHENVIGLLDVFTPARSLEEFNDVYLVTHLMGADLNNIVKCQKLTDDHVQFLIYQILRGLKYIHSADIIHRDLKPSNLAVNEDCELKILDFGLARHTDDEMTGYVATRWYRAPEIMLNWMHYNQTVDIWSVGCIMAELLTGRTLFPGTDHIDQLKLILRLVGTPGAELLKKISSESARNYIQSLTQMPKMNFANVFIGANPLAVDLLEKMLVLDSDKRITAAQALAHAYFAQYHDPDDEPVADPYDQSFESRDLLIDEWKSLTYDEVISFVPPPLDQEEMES

Question: With `O=C(Nc1ccc2ncnc(Nc3cccc(Br)c3)c2c1)c1ccc(C(F)(F)F)cc1O` [Compound 21, N-(4-(3-bromophenylamino)quinazolin-6-yl)-2-hydroxy-4-(trifluoromethyl)benzamide] as the compound, how does the IC50 ([1]; ATP concentration = Km) read?
Answer: 16.1 ± 0.37 µM

Question: What about the “pIC50 p38α” value [1, 7] of the same compound?
Answer: 4.79

Question: What about the IC50 [2] of the same compound?
Answer: 63.7 ± 1.02 µM

Question: And the IC50 ([3]; ATP concentration = Km)?
Answer: 3.5 µM

Question: What about the “pIC50 CDK2” value [3, 7] of the same compound?
Answer: 5.46

Question: What about the IC50 [4] of the same compound?
Answer: 0.92 ± 0.019 µM

Question: What about the IC50 [5] of the same compound?
Answer: 58.4 ± 0.78 µM

Question: And the “selectivity against major of other kinases screened” value [6]?
Answer: more than 100 fold
